Values joined by “and” are separate entries in the source; they are usually repeats but may differ in a detail not shown here. Equal values may be shown once.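 These data come from cells grown in 96-well plates and exposed to compound for 48 hours at five concentrations. GI50 is the concentration that inhibits growth by half. TGI is the concentration that stops growth completely.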
What was measured:
Test in all cases: growth of human tumour cells (NCI), 48 h
OVCAR-8 ovarian = tested on: OVCAR-8 ovarian
SK-MEL-2 melanoma = tested on: SK-MEL-2 melanoma
RXF 393 renal = tested on: RXF 393 renal
UO-31 renal = tested on: UO-31 renal
TK-10 renal = tested on: TK-10 renal
A549 NSCLC = tested on: A549 NSCLC
K-562 leukemia = tested on: K-562 leukemia
SK-MEL-5 melanoma = tested on: SK-MEL-5 melanoma
OVCAR-3 ovarian = tested on: OVCAR-3 ovarian
SNB-19 CNS = tested on: SNB-19 CNS

| Structure (SMILES) | GI50 (OVCAR-8 ovarian) [µM] | TGI (OVCAR-8 ovarian) [µM] | GI50 (SK-MEL-2 melanoma) | TGI (SK-MEL-2 melanoma) [µM] | GI50 (RXF 393 renal) | TGI (RXF 393 renal) | GI50 (UO-31 renal) | TGI (UO-31 renal) | GI50 (TK-10 renal) | TGI (TK-10 renal) | GI50 (A549 NSCLC) | TGI (A549 NSCLC) [µM] | GI50 (K-562 leukemia) | TGI (K-562 leukemia) [µM] | GI50 (SK-MEL-5 melanoma) | TGI (SK-MEL-5 melanoma) [µM] | GI50 (OVCAR-3 ovarian) [µM] | TGI (OVCAR-3 ovarian) [µM] | GI50 (SNB-19 CNS) [µM] | TGI (SNB-19 CNS) [µM] |
| --- | --- | --- | --- | --- | --- | --- | --- | --- | --- | --- | --- | --- | --- | --- | --- | --- | --- | --- | --- | --- |
| COc1cc2ncnc(-n3ncc4cc(NC(=O)Nc5ccccc5)ccc43)c2cc1OC | 5.17 | 28.3 | 1.34 µM | 3.51 | 1.04 µM | 2.76 µM | 0.499 µM | 2.84 µM | 0.724 µM | 2.56 µM | 1.79 µM | 8.74 | 2.86 µM | 15.5 | 5.22 µM | 21.3 | 2.08 | 13.1 | 2.29 | 17.7 |
| NS(=O)(=O)c1ccc(-c2ccc3c(NC(=O)C4CC4)n[nH]c3c2)cc1 | > 25 | > 25 | > 25 µM | > 25 | > 25 µM | > 25 µM | > 25 µM | > 25 µM | > 25 µM | > 25 µM | > 25 µM | > 25 | > 25 µM | > 25 | > 25 µM | > 25 | > 25 | > 25 | > 25 | > 25 |
| Nc1nc(Nc2cccnc2)sc1C(=O)c1ccccc1F | 3.9 | > 100 | 2.92 µM | 9.79 | 1.9 µM | 4.39 µM | 2.45 µM | > 26.5 µM | 4.09 µM | 49.9 µM | 3.16 µM | > 100 | 6.69 µM | > 65.4 | 0.349 µM | 3.32 | 2.82 | > 28.1 | 2.65 | > 23.5 |
| COC(=O)Nc1nc2ccc(C3(c4ccc(F)cc4)OCCO3)cc2[nH]1 | 0.527 | > 100 | 0.427 µM | > 100 | 0.211 µM | 0.654 µM | 3.39 µM | > 100 µM | 15.7 µM | > 100 µM | 0.417 µM | > 100 | 0.112 µM | > 100 | 0.267 µM | 17.4 | 0.301 |  | 0.483 | > 100 |
| CC1=CC(C)(C)N=C2SC(c3ccc(N)cc3)=NN12 |  | > 100 |  | > 100 |  | > 100 µM |  | > 100 µM |  | > 100 µM |  | > 100 |  | > 66 |  | > 100 |  | > 100 |  | > 100 |
| CC1=CC(=O)C=CC1=O | 17.7 | 41.4 | 50.7 µM and 23.8 µM | 66.3 | 16.8 µM and 12.1 µM | 31.5 µM and 27.4 µM | 12.7 µM and 4.8 µM | 26 µM and 17.6 µM | 20.8 µM and 16.9 µM | 36.4 µM and 30.7 µM | 79.4 µM and 24.9 µM | 66.8 | 3 µM and 4.38 µM |  | 29.3 µM and 13.4 µM | 26.3 | 3.96 | 13.3 | 36.1 | 89.4 |
| Cc1ccc(N=C/C=C(\Nc2ccc(C)cc2)c2ccc(Cl)cc2)cc1 | 14.6 | 53.6 | 29.9 µM | > 100 | 17.6 µM | 59.2 µM | 21.4 µM | 85.8 µM | 12.3 µM | 42.2 µM | 10.5 µM | 61.1 | 4.75 µM | > 100 | 6 µM | 20.7 | 8.06 | 77.9 | 17.3 | 70.6 |
| CCOC(=O)/C(C)=C(/O)C(=O)OCC |  | > 100 |  | > 100 |  | > 100 µM |  | > 100 µM |  | > 100 µM |  | > 100 |  | > 100 |  | > 100 |  | > 100 |  | > 100 |
| COc1ccc(-c2[nH]c3ccc(OC)cc3c2/C=C(\C#N)S(=O)(=O)c2ccccc2)cc1 | 2.97 | > 35.2 | 6.42 µM | > 69.3 | > 100 µM | > 100 µM | 2.69 µM | > 27.6 µM | 4.56 µM | > 100 µM | 2.01 µM | > 68.3 | 0.475 µM |  | 0.319 µM | 2.39 | 0.356 | 1.62 | 3.14 | > 100 |
| CCc1nc2cc(F)c(/C=C/C(=O)NO)cc2c(=O)n1CCc1ccccc1 | 0.287 | 2.24 | 0.293 µM | 0.863 | 0.23 µM | 0.731 µM | 0.2 µM | 0.648 µM | 0.256 µM | 0.838 µM | 0.335 µM | 2.67 | 0.303 µM | > 100 | 0.256 µM | 0.701 | 0.323 | 10.8 | 0.46 | 17 |

From PubChem BioAssay (NCI)
